Reference: EP2271935B1, “METHOD AND KIT FOR THE EX VIVO EVALUATION OF THE RESPONSE OF A TUMOR TO CONDITIONS TO BE TESTED” (Universität Leipzig, priority 2008, dated 2009)
Where two headings read alike, the source gives them in different places.

System: epithelial cell line KB (DSMZ ACC 136)
Assay: MTT assay of proliferation under varied riboflavin content and light exposure
Assay type: cell-based, human
From the text: To address this question, three media, a) the RPMI 1640 without riboflavin and phenol red that is used in the method according to the invention and was manufactured according to our specifications by Biochrom, as well as two different RPMI 1640 charges purchased from Invitrogen which were each containing 532 nmol/L riboflavin, b) a phenol red-free (Gibco 11835), and c) a conventional RPMI 1640 (Gibco 21875) with 13.284 µmol/L phenol red. All media were supplemented with 2 mmol/L L-alanyl-1-glutamine as stabilized glutamine source (Biochrom K0302 Lot 0755 S) and the same amount of 10% (v/v) of heat-inactivated fetal calf serum (FCS) that was purchased from Invitrogen (Lot 41Q7554K) with a yield of 198 nmol/L riboflavin. […] These medium concentrations define the riboflavin concentrations in controls (see below).
In addition to the influences exerted by the different types of media alone, the riboflavin-dependent impact on the outcome of the docetaxel treatment was investigated. For this purpose 100 µl/well of docetaxel dilutions containing threefold the concentration indicated were added into the wells of microwell plates. The following seven docetaxel concentrations were tested: 19.38, 38.75, 77.5, 155, 310, 620, and 1,240 pmol/L.
To examine photoactivation-dependent riboflavin-mediated effects disturbing the outcome of ex-vivo chemoresponse-evaluation by conventional cell culture medium, and in particular in the absence of flavin-protecting experimental conditions, varying amounts of riboflavin were added. A stock solution of 200 µM (-)-riboflavin (CAS 83-68-5, Sigma R9504, FW=376.37 g/mol, purity >99%, cell culture tested) in phosphate buffered saline was diluted to adjust in each case the highest final concentration in culture (this means: after completion of the assay by addition of the other two components to the final assay volume of 300 µL) to exactly 10 µmol/L. Serial log10-dilutions were made from this concentration in each corresponding medium. These gave final concentrations in cell culture of 10.000, 1.018, 0.12, and 0.03 µmol/L in the case of medium a) (the medium according to the method of the invention), and concentrations of 10.000, 1.449, 0.594, and 0.508 µmol/L using media b) and c).
In general, each combination of riboflavin and docetaxel were tested in duplicate, and controls without additional riboflavin in quadruplicate for each experimental setting in the same 96-well plate. The experimental conditions were as follows: For each of the used media, two different plates were prepared simultaneously and either handled completely under flavin-protecting conditions (illumination only by sodium discharge lamps with an emission wavelength of 589 nm [i]), or in the same bench (Thermo MSC 12) with the installed light inside their working chamber switched on. The dilution of docetaxel and those of riboflavin in the particular medium were prepared for all four plates of each medium type prior to the other working steps under flavin-protecting conditions. Thus the administrations of these dilutions took about 20 min either under flavin-protecting conditions or illuminated conditions. After completed preparation of the plates that thereafter contained 200 µL of both diluted compounds, the plates were incubated 2 h in the incubator to allow for adjustment of the appropriate pH.
In between the stock culture of KB was harvested by trypsination of a 3-days stock culture (exponential growth phase). Stock cultures of KB cells always were grown without any antibiotic or antimycotic in phenol red- and riboflavin-free RPMI 1640 supplemented with 10% (v/v) FCS and were adapted to this medium for more than five passages. They were always handled at room temperature or warmer and were never exposed to light other than the light of a sodium discharge lamp with an emission wavelength of 589 nm for at least five passages. […]

SMILES: CC(=O)O[C@@]12CO[C@@H]1C[C@H](O)[C@@]1(C)C(=O)[C@H](O)C3=C(C)[C@@H](OC(=O)[C@H](O)[C@@H](NC(=O)OC(C)(C)C)c4ccccc4)C[C@@](O)([C@@H](OC(=O)c4ccccc4)[C@H]21)C3(C)C [docetaxel]
- IC50 (Homo sapiens, Epithelial cell, 0.5 h, Plate No. 02; Riboflavin 20 nmol/L; medium a) RPMI 1640 without riboflavin and phenol red, daylight 30 min, read-out: IC50 for docetaxel with reference to control with same riboflavin content): 0.238 nM
- IC50 (Homo sapiens, Epithelial cell, 0.5 h, Plate No. 02; Riboflavin 20 nmol/L; medium a), daylight 30 min, read-out: IC50 for docetaxel normalized to medium control of medium with same riboflavin content): 0.1 nM
- IC50 (Homo sapiens, Epithelial cell, 0.5 h, Plate No. 02; Riboflavin 30 nmol/L; medium a) RPMI 1640 without riboflavin and phenol red, daylight 30 min, read-out: IC50 for docetaxel with reference to control with same riboflavin content): 0.328 nM
- IC50 (Homo sapiens, Epithelial cell, 0.5 h, Plate No. 02; Riboflavin 30 nmol/L; medium a), daylight 30 min, read-out: IC50 for docetaxel normalized to medium control of medium with same riboflavin content): 0.138 nM
- IC50 (Homo sapiens, Epithelial cell, 0.5 h, Plate No. 02; Riboflavin 120 nmol/L; medium a) RPMI 1640 without riboflavin and phenol red, daylight 30 min, read-out: IC50 for docetaxel with reference to control with same riboflavin content): 0.34 nM
- IC50 (Homo sapiens, Epithelial cell, 0.5 h, Plate No. 02; Riboflavin 120 nmol/L; medium a), daylight 30 min, read-out: IC50 for docetaxel normalized to medium control of medium with same riboflavin content): 0.143 nM
- IC50 (Homo sapiens, Epithelial cell, 0.5 h, Plate No. 03; Riboflavin 20 nmol/L; medium a) RPMI 1640 without riboflavin and phenol red, bench lighting <30 min, read-out: IC50 for docetaxel with reference to control with same riboflavin content): 0.212 nM
- IC50 (Homo sapiens, Epithelial cell, 0.5 h, Plate No. 03; Riboflavin 20 nmol/L; medium a), bench lighting <30 min, read-out: IC50 for docetaxel normalized to medium control of medium with same riboflavin content): 0.1 nM
- IC50 (Homo sapiens, Epithelial cell, 0.5 h, Plate No. 03; Riboflavin 30 nmol/L; medium a) RPMI 1640 without riboflavin and phenol red, bench lighting <30 min, read-out: IC50 for docetaxel with reference to control with same riboflavin content): 0.185 nM
- IC50 (Homo sapiens, Epithelial cell, 0.5 h, Plate No. 03; Riboflavin 30 nmol/L; medium a), bench lighting <30 min, read-out: IC50 for docetaxel normalized to medium control of medium with same riboflavin content): 0.0873 nM
- IC50 (Homo sapiens, Epithelial cell, 0.5 h, Plate No. 03; Riboflavin 120 nmol/L; medium a) RPMI 1640 without riboflavin and phenol red, bench lighting <30 min, read-out: IC50 for docetaxel with reference to control with same riboflavin content): 0.154 nM
- IC50 (Homo sapiens, Epithelial cell, 0.5 h, Plate No. 03; Riboflavin 120 nmol/L; medium a), bench lighting <30 min, read-out: IC50 for docetaxel normalized to medium control of medium with same riboflavin content): 0.0725 nM
- IC50 (Homo sapiens, Epithelial cell, 0.5 h, Plate No. 03; Riboflavin 1018 nmol/L; medium a) RPMI 1640 without riboflavin and phenol red, bench lighting <30 min, read-out: IC50 for docetaxel with reference to control with same riboflavin content): 0.202 nM
- IC50 (Homo sapiens, Epithelial cell, 0.5 h, Plate No. 03; Riboflavin 1018 nmol/L; medium a), bench lighting <30 min, read-out: IC50 for docetaxel normalized to medium control of medium with same riboflavin content): 0.095 nM
- IC50 (Homo sapiens, Epithelial cell, 0.5 h, Plate No. 04; Riboflavin 20 nmol/L; medium a) RPMI 1640 without riboflavin and phenol red, bench lighting <30 min, daylight 30 min, read-out: IC50 for docetaxel with reference to control with same riboflavin content): 0.175 nM
- IC50 (Homo sapiens, Epithelial cell, 0.5 h, Plate No. 04; Riboflavin 20 nmol/L; medium a), bench lighting <30 min, daylight 30 min, read-out: IC50 for docetaxel normalized to medium control of medium with same riboflavin content): 0.1 nM
- IC50 (Homo sapiens, Epithelial cell, 0.5 h, Plate No. 04; Riboflavin 30 nmol/L; medium a) RPMI 1640 without riboflavin and phenol red, bench lighting <30 min, daylight 30 min, read-out: IC50 for docetaxel with reference to control with same riboflavin content): 0.139 nM
- IC50 (Homo sapiens, Epithelial cell, 0.5 h, Plate No. 04; Riboflavin 30 nmol/L; medium a), bench lighting <30 min, daylight 30 min, read-out: IC50 for docetaxel normalized to medium control of medium with same riboflavin content): 0.0796 nM
- IC50 (Homo sapiens, Epithelial cell, 0.5 h, Plate No. 04; Riboflavin 120 nmol/L; medium a) RPMI 1640 without riboflavin and phenol red, bench lighting <30 min, daylight 30 min, read-out: IC50 for docetaxel with reference to control with same riboflavin content): 0.149 nM
- IC50 (Homo sapiens, Epithelial cell, 0.5 h, Plate No. 04; Riboflavin 120 nmol/L; medium a), bench lighting <30 min, daylight 30 min, read-out: IC50 for docetaxel normalized to medium control of medium with same riboflavin content): 0.0855 nM
- IC50 (Homo sapiens, Epithelial cell, 0.5 h, Plate No. 06; Riboflavin 499 nmol/L; medium b) phenol red-free RPMI 1640, daylight 30 min, read-out: IC50 for docetaxel with reference to control with same riboflavin content): 0.223 nM
- IC50 (Homo sapiens, Epithelial cell, 0.5 h, Plate No. 06; Riboflavin 499 nmol/L; medium b), daylight 30 min, read-out: IC50 for docetaxel normalized to medium control of medium with same riboflavin content): 0.1 nM
- IC50 (Homo sapiens, Epithelial cell, 0.5 h, Plate No. 06; Riboflavin 508 nmol/L; medium b) phenol red-free RPMI 1640, daylight 30 min, read-out: IC50 for docetaxel with reference to control with same riboflavin content): 0.485 nM
- IC50 (Homo sapiens, Epithelial cell, 0.5 h, Plate No. 06; Riboflavin 508 nmol/L; medium b), daylight 30 min, read-out: IC50 for docetaxel normalized to medium control of medium with same riboflavin content): 0.218 nM
- IC50 (Homo sapiens, Epithelial cell, 0.5 h, Plate No. 06; Riboflavin 594 nmol/L; medium b) phenol red-free RPMI 1640, daylight 30 min, read-out: IC50 for docetaxel with reference to control with same riboflavin content): 0.187 nM
